Data as given in patent publication US4209441A, “Anti-gastric secretion polypeptide” (American Home Products Corporation, priority 1979, dated 1980).
Structures can show the parent of a compound that is named as a salt. Bridge positions count the residues as written; N and C are the ends. Square brackets hold non-standard residues; d marks the D form. Peptide text beside a SMILES is read from it.

What was measured:
Type in all cases: in vivo, rat
[1] = system: gastric acid secretion (total acid output); assay: Anti-secretory activity in pylorus-ligated rats (total acid output over four hours); conditions: for Percentage Inhibition (of Total Acid Output): i.d. administration, pylorus-ligated rats, 4 hr, versus control group
Description: The polypeptide of this invention was tested and found active parenterally (s.c.) in the following scientifically recognized, standard test for anti-secretory activity;
Male Charles River rats of Sprague-Dawley strain and 190 to 240 gm. body weight are food deprived for 24 hr. with water ad libitum until the test. Groups of ten rats each are assigned to either control or drug treatment. Pyloric ligation was performed under ether anesthesia through a midline laparotomy, and either control vehicle (0.25 methylcellulose) or drug in control vehicle was administered intraduodenally. The rats are sacrificed by CO2 asphyxiation four hours after pyloric ligation. The stomachs are removed and the gastric contents emptied into graduated centrifuge tubes. The gastric samples are centrifuged for 20 min. and those obviously contaminated by food, blood or feces are discarded. The volume of gastric fluid is recorded and the acid concentration of 1.0 ml. sample aliquots is measured by electrometric titration to pH 7.0 with 0.1 N NaOH. The calculated product of gastric volume (ml/4 hr.) and acid concentration (mEq/L) estimates the total acid output (TAO, mEq/4 hr.) over the four-hour test period.
An index of drug gastric antisecretory activity is reported at the end of the example illustrating its production. The results, expressed as percentage inhibition, show the reduction of acid secretion in drug-treated compared to control groups, based upon i.d. administration of 2 mg/kg and 0.5 mg/kg of the tested compound. In addition, the effect of the polypeptide in the control of insulin and glucagon secretion is reported at a dose of 750 micrograms per kilogram.

insulin = assay: Suppression of insulin in arginine-stimulated rats; conditions: for reduction in insulin in vivo (in words): tested in vivo by standard methods
Description: (§1) Albino male rats are administered Nembutol intraperitoneally at a dose of 50 mg/kg. Fifteen minutes later a subcutaneous injection of the test compound or physiological saline is administered. Ten minutes later 0.5 ml. of arginine (300 mg/ml, pH 7.2) is injected into the heart. Five minutes after receipt of the arginine the rats are decapitated and blood is collected into Trasylol-EDTA. An appropriate aliquot is assayed for insulin and glucagon.

glucagon = assay: Suppression of glucagon in arginine-stimulated rats; conditions: for reduction in glucagon in vivo (in words): tested in vivo by standard methods
Description: as §1

[2] = listed as compound of this invention
[3] = listed as polypeptide of the invention

Row | SMILES | Percentage Inhibition (of Total Acid Output) ([1]; 0.5 mg/kg) | Percentage Inhibition (of Total Acid Output) ([1]; 2 mg/kg) | anti-secretory activity (in words) ([1]; parenterally (s.c.)) | Insulin (insulin; 750 μg/kg subcutaneous, arginine-stimulated rats, blood 15 min after dosing, control 283 ± 28) | reduction in insulin in vivo (in words) (insulin; [2]) | reduction in insulin in vivo (in words) (insulin; [3]) | Glucagon (glucagon; 750 μg/kg subcutaneous, arginine-stimulated rats, blood 15 min after dosing, control 55 ± 5) | reduction in glucagon in vivo (in words) (glucagon; [2]) | reduction in glucagon in vivo (in words) (glucagon; [3]) | dose that effectively inhibits secretion of insulin (insulin; same test procedure) | dose that effectively inhibits secretion of glucagon (glucagon; same test procedure)
1 | C[C@H](N)C(=O)NCC(=O)N[C@H]1CSSC[C@@H](C(=O)O)NC(=O)[C@H](CO)NC(=O)[C@H]([C@@H](C)O)NC(=O)[C@H](Cc2ccc(O)cc2)NC(=O)[C@H]([C@@H](C)O)NC(=O)[C@H](CCCCN)NC(=O)[C@@H](Cc2c[nH]c3ccccc23)NC(=O)[C@H](Cc2ccccc2)NC(=O)[C@H](Cc2ccccc2)NC(=O)[C@H](CC(N)=O)NC(=O)[C@H](CCCCN)NC1=O [Example 5, L-alanylglycyl-L-cysteinyl-L-lysyl-L-asparaginyl-L-phenylalanyl-L-phenylalanyl-D-tryptophyl-L-lysyl-L-threonyl-L-tyrosyl-L-threonyl-L-seryl-L-cysteine cyclic (3-14)-disulfide, triacetate-salt] (H-AGCKNFF[dW]KTYTSC-OH; disulfide 3-14) | 38% | 68% | active | 238 ± 42 μU/ml | no meaningful reduction | without materially affecting | 35 ± 9 pg/mL | no meaningful reduction | without materially affecting | – | –
2 | C[C@H](N)C(=O)NCC(=O)N[C@H]1CSSC[C@@H](C(=O)O)NC(=O)[C@H](CO)NC(=O)[C@H]([C@@H](C)O)NC(=O)[C@H](Cc2ccccc2)NC(=O)[C@H]([C@@H](C)O)NC(=O)[C@H](CCCCN)NC(=O)[C@H](Cc2c[nH]c3ccccc23)NC(=O)[C@H](Cc2ccccc2)NC(=O)[C@H](Cc2ccccc2)NC(=O)[C@H](CC(N)=O)NC(=O)[C@H](CCCCN)NC1=O [Somatostatin, reference compound] | – | – | – | – | – | – | – | – | – | about 10 micrograms per kilogram | about 10 micrograms per kilogram
